Results reported in US10251395B2, “Substituted furano-/thienocycloalkylamino-2-pyrimidine derivatives and use thereof for controlling undesired plant growth” (Bayer CropScience Aktiengesellschaft, priority 2015, dated 2019).

Columns and labels:
Type in all cases: in vivo
Ipomoea purpurea [1] = assay: Pre-emergence herbicidal effect; details: scored visually after 3 weeks
How it was run: (§1)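 Sowing in sandy loam, covering with soil, then surface application of compound as aqueous suspension or emulsion (600 to 800 L/ha, 0.2% wetting agent). Greenhouse growth under good conditions; visual % damage scored at 3 weeks versus untreated pots.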

Veronica persica [2] = assay: Pre-emergence herbicidal effect; details: scored visually after 3 weeks
How it was run: as §1

Viola tricolor [3] = assay: Pre-emergence herbicidal effect; details: scored visually after 3 weeks
How it was run: as §1

Matricaria inodora [4] = assay: Pre-emergence herbicidal effect; details: scored visually after 3 weeks
How it was run: as §1

Cyperus esculentus = assay: Pre-emergence herbicidal effect; details: scored visually after 3 weeks
How it was run: as §1

Stellaria media [5] = assay: Pre-emergence herbicidal effect; details: scored visually after 3 weeks
How it was run: as §1

Amaranthus retroflexus [6] = assay: Post-emergence herbicidal effect; details: assessed visually after about 3 weeks vs untreated controls
How it was run: (§2)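 Greenhouse weeds grown in sandy loam were sprayed at the one-leaf stage, 2–3 weeks after sowing, with WP or EC formulations in 600–800 L/ha water plus 0.2% wetting agent. Damage was scored visually after about 3 weeks as percent activity relative to untreated controls, where 100% means the plants died.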

Veronica persica [7] = assay: Post-emergence herbicidal effect; details: assessed visually after about 3 weeks vs untreated controls
How it was run: as §2

Viola tricolor [8] = assay: Post-emergence herbicidal effect; details: assessed visually after about 3 weeks vs untreated controls
How it was run: as §2

Abutilon theophrasti [9] = assay: Post-emergence herbicidal effect; details: assessed visually after about 3 weeks vs untreated controls
How it was run: as §2

Setaria viridis [10] = assay: Post-emergence herbicidal effect; details: assessed visually after about 3 weeks vs untreated controls
How it was run: as §2

Stellaria media [11] = assay: Post-emergence herbicidal effect; details: assessed visually after about 3 weeks vs untreated controls
How it was run: as §2

Lolium multiflorum = assay: Pre-emergence herbicidal effect; details: Dosage 320 g/ha, scored visually after 3 weeks
How it was run: as §1

Setaria viridis [12] = assay: Pre-emergence herbicidal effect; details: scored visually after 3 weeks
How it was run: as §1

Echinochloa crus-galli [13] = assay: Pre-emergence herbicidal effect; details: scored visually after 3 weeks
How it was run: as §1

Alopecurus myosuroides = assay: Pre-emergence herbicidal effect; details: scored visually after 3 weeks
How it was run: as §1

Ipomoea purpurea [14] = assay: Post-emergence herbicidal effect; details: assessed visually after about 3 weeks vs untreated controls
How it was run: as §2

Matricaria inodora [15] = assay: Post-emergence herbicidal effect; details: assessed visually after about 3 weeks vs untreated controls
How it was run: as §2

Amaranthus retroflexus [16] = assay: Pre-emergence herbicidal effect; details: scored visually after 3 weeks
How it was run: as §1

Abutilon theophrasti [17] = assay: Pre-emergence herbicidal effect; details: scored visually after 3 weeks
How it was run: as §1

Polygonum convolvulus = assay: Pre-emergence herbicidal effect; details: scored visually after 3 weeks
How it was run: as §1

Avena fatua = assay: Pre-emergence herbicidal effect; details: scored visually after 3 weeks
How it was run: as §1

Echinochloa crus-galli [18] = assay: Post-emergence herbicidal effect; details: 320 g/ha, assessed visually after about 3 weeks vs untreated controls
How it was run: as §2

Compound | PHBPU pre-emergence efficacy (herbicidal activity) (Ipomoea purpurea [1]; Dosage 80 g/ha) | PHBPU pre-emergence efficacy (herbicidal activity) (Ipomoea purpurea [1]; Dosage 320 g/ha) | VERPE pre-emergence efficacy (herbicidal activity) (Veronica persica [2]; Dosage 80 g/ha) | VERPE pre-emergence efficacy (herbicidal activity) (Veronica persica [2]; Dosage 320 g/ha) | VIOTR pre-emergence efficacy (herbicidal activity) (Viola tricolor [3]; Dosage 80 g/ha) | VIOTR pre-emergence efficacy (herbicidal activity) (Viola tricolor [3]; Dosage 320 g/ha) | MATIN pre-emergence efficacy (herbicidal activity) (Matricaria inodora [4]; Dosage 80 g/ha) | MATIN pre-emergence efficacy (herbicidal activity) (Matricaria inodora [4]; Dosage 320 g/ha) | CYPES pre-emergence efficacy (herbicidal activity) (Cyperus esculentus; Dosage 320 g/ha) | STEME pre-emergence efficacy (herbicidal activity) (Stellaria media [5]; Dosage 80 g/ha) | STEME pre-emergence efficacy (herbicidal activity) (Stellaria media [5]; Dosage 320 g/ha) | post-emergence efficacy AMARE (Amaranthus retroflexus [6]; 80 g/ha) | post-emergence efficacy AMARE (Amaranthus retroflexus [6]; 320 g/ha) | post-emergence efficacy VERPE (Veronica persica [7]; 320 g/ha) | post-emergence efficacy VIOTR (Viola tricolor [8]; 80 g/ha) | post-emergence efficacy VIOTR (Viola tricolor [8]; 320 g/ha) | post-emergence efficacy STEME (Stellaria media [11]; 80 g/ha) | post-emergence efficacy STEME (Stellaria media [11]; 320 g/ha) | SETVI pre-emergence efficacy (herbicidal activity) (Setaria viridis [12]; Dosage 320 g/ha) | ECHCG pre-emergence efficacy (herbicidal activity) (Echinochloa crus-galli [13]; Dosage 320 g/ha) | also measured
Cc1cc2c(s1)CCCC2Nc1nc(N)c(S(C)(=O)=O)c(C(F)F)n1 (racemic) [compound 287] | 90% | 100% | 100% | 100% | 90% | 100% | 100% | 100% | 100% | 90% | 100% | 90% | 100% | 100% | 100% | 100% | 80% | 100% | – | – | CYPES pre-emergence efficacy (herbicidal activity) (Cyperus esculentus; Dosage 80 g/ha): 80%; post-emergence efficacy VERPE (Veronica persica [7]; 80 g/ha): 80%; post-emergence efficacy ABUTH (Abutilon theophrasti [9]; 80 g/ha): 80%; post-emergence efficacy ABUTH (Abutilon theophrasti [9]; 320 g/ha): 80%; post-emergence efficacy SETVI (Setaria viridis [10]; 320 g/ha): 80%
CC(=O)c1cnc(NC2CCCc3sccc32)nc1N (stereo not drawn) [compound 301] | 100% | 100% | 100% | 100% | 100% | 100% | 100% | 100% | 70% | 100% | 100% | 80% | 80% | 100% | 80% | 90% | 60% | 60% | 100% | 100% | LOLMU pre-emergence efficacy (herbicidal activity) (Lolium multiflorum): 100%; SETVI pre-emergence efficacy (herbicidal activity) (Setaria viridis [12]; Dosage 80 g/ha): 100%; ECHCG pre-emergence efficacy (herbicidal activity) (Echinochloa crus-galli [13]; Dosage 80 g/ha): 70%; ALOMY pre-emergence efficacy (herbicidal activity) (Alopecurus myosuroides; Dosage 320 g/ha): 80%; post-emergence efficacy PHBPU (Ipomoea purpurea [14]; 320 g/ha): 90%; post-emergence efficacy MATIN (Matricaria inodora [15]; 320 g/ha): 60%
CC(=NO)c1cnc(NC2CCCc3sc(C)cc32)nc1N (stereo not drawn) [compound 286] | 100% | 50% | 100% | 100% | 100% | 100% | 80% | 100% | 70% | 60% | 100% | 90% | 90% | 100% | 90% | 90% | 70% | 100% | 100% | 100% | AMARE pre-emergence efficacy (herbicidal activity) (Amaranthus retroflexus [16]; Dosage 320 g/ha): 100%; LOLMU pre-emergence efficacy (herbicidal activity) (Lolium multiflorum): 80%; ABUTH pre-emergence efficacy (herbicidal activity) (Abutilon theophrasti [17]; Dosage 80 g/ha): 70%; ABUTH pre-emergence efficacy (herbicidal activity) (Abutilon theophrasti [17]; Dosage 320 g/ha): 60%; POLCO pre-emergence efficacy (herbicidal activity) (Polygonum convolvulus; Dosage 320 g/ha): 100%; ALOMY pre-emergence efficacy (herbicidal activity) (Alopecurus myosuroides; Dosage 320 g/ha): 60%; post-emergence efficacy PHBPU (Ipomoea purpurea [14]; 80 g/ha): 70%; post-emergence efficacy PHBPU (Ipomoea purpurea [14]; 320 g/ha): 70%; post-emergence efficacy ABUTH (Abutilon theophrasti [9]; 80 g/ha): 90%; post-emergence efficacy ABUTH (Abutilon theophrasti [9]; 320 g/ha): 90%; post-emergence efficacy MATIN (Matricaria inodora [15]; 80 g/ha): 80%; post-emergence efficacy MATIN (Matricaria inodora [15]; 320 g/ha): 90%
Cc1cc2c(s1)CCCC2Nc1ncc(C#N)c(N)n1 (racemic) [compound 52] | – | 100% | 100% | 100% | – | – | 100% | 100% | 100% | 100% | 100% | 100% | 100% | 90% | 90% | 90% | 100% | 100% | 100% | 90% | AMARE pre-emergence efficacy (herbicidal activity) (Amaranthus retroflexus [16]; Dosage 80 g/ha): 100%; AMARE pre-emergence efficacy (herbicidal activity) (Amaranthus retroflexus [16]; Dosage 320 g/ha): 100%; ABUTH pre-emergence efficacy (herbicidal activity) (Abutilon theophrasti [17]; Dosage 80 g/ha): 90%; ABUTH pre-emergence efficacy (herbicidal activity) (Abutilon theophrasti [17]; Dosage 320 g/ha): 100%; AVEFA pre-emergence efficacy (herbicidal activity) (Avena fatua; Dosage 80 g/ha): 90%; AVEFA pre-emergence efficacy (herbicidal activity) (Avena fatua; Dosage 320 g/ha): 90%; CYPES pre-emergence efficacy (herbicidal activity) (Cyperus esculentus; Dosage 80 g/ha): 100%; POLCO pre-emergence efficacy (herbicidal activity) (Polygonum convolvulus; Dosage 80 g/ha): 100%; POLCO pre-emergence efficacy (herbicidal activity) (Polygonum convolvulus; Dosage 320 g/ha): 100%; SETVI pre-emergence efficacy (herbicidal activity) (Setaria viridis [12]; Dosage 80 g/ha): 80%; ECHCG pre-emergence efficacy (herbicidal activity) (Echinochloa crus-galli [13]; Dosage 80 g/ha): 80%; ALOMY pre-emergence efficacy (herbicidal activity) (Alopecurus myosuroides; Dosage 80 g/ha): 70%; ALOMY pre-emergence efficacy (herbicidal activity) (Alopecurus myosuroides; Dosage 320 g/ha): 80%; post-emergence efficacy VERPE (Veronica persica [7]; 80 g/ha): 90%; post-emergence efficacy MATIN (Matricaria inodora [15]; 80 g/ha): 60%; post-emergence efficacy MATIN (Matricaria inodora [15]; 320 g/ha): 60%; post-emergence efficacy SETVI (Setaria viridis [10]; 80 g/ha): 60%; post-emergence efficacy SETVI (Setaria viridis [10]; 320 g/ha): 80%; post-emergence efficacy ECHCG (Echinochloa crus-galli [18]): 100%
